Measurements taken from patent publication US12509444B2, “Compounds and methods for CD73 modulation and indications therefor” (Plexxikon Inc., priority 2019, dated 2025).

Assays:
[1] = target: T1, Human CD73 (amino acid residues 27-549) (Homo sapiens, UniProt P21589); test: CD73 enzymatic assay (luciferase-based indirect assay, CellTiter-Glo); type: biochemical; settings: 0.4 nM CD73, 150 μM AMP, 1 hour at room temperature
T1 construct: Human CD73 (amino acid residues 27-549); His tag (N); made in house; host or cells: E. coli
T1 sequence (P21589 27-549): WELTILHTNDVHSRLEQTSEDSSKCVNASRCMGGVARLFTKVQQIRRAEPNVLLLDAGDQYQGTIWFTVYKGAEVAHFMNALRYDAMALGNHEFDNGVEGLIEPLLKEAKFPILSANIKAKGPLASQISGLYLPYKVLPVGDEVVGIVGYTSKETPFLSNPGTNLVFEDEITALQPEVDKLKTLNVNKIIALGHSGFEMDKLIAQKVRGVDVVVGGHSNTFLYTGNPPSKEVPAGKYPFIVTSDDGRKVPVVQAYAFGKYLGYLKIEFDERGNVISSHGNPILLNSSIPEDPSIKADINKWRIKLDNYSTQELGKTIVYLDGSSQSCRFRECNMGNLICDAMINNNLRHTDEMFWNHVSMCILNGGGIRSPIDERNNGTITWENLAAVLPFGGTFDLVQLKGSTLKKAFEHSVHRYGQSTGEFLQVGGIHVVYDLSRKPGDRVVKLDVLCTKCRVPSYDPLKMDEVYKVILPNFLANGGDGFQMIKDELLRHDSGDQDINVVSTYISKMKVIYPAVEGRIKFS
How it was run: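 His-tagged human CD73 (27-549) from E. coli, 0.4 nM, with 150 μM AMP in 50 mM HEPES pH 7.4, 0.01% Tween 20; 1 h at room temperature. AMP remaining read by CellTiter-Glo 2.0 luminescence with 1 μM final ATP after 30 min. IC50 from nonlinear regression of % inhibition.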

human CD73 = target: T2, human CD73 (Homo sapiens, UniProt P21589); test: Inhibitor activity against CD73 in cell based assay (CD73 expressing CHO-K1 cells); settings: CHO-K1 cells expressing human CD73, 150 μM AMP, 4 hours of incubation; read-out: CHO-K1 CELL VARIANT: CD73 IC50
T2 construct: expressed in transfected cells
T2 sequence (P21589 27-549): T1 sequence (P21589 27-549)
Description: Determine Inhibitor Activity Against CD73 in Cell Based Assay
CD73 expressing CHO-K1 cell clones were generated upon stable transfection of a plasmid expressing human CD73 under the control of CMV promoter. Cells were selected in Ham's F-12K (Kaighn's) media supplemented with 10% fetal bovine serum and 1 mg/ml G418 at 37° C. in a humidified incubator supplied with 5% CO2. The assays were performed as follows. Cells were seeded in a 96 well plate in 50 μL of culture media at a density of 1×10^4 per well. Compound at a maximal concentration of 5 mM was serially diluted 1:3 in DMSO for a total of 8 point titration. A 2 μL aliquot of each dilution point was added to 248 μL culture media and 25 µL was added to each well, providing 10 μM compound at the maximum concentration point. AMP was diluted in culture media and 25 μL was added to each well with a final concentration of 150 μM. 4 wells containing 0.2% DMSO treated cells and AMP served as high controls and 4 wells containing media only with 0.2% DMSO and AMP served as low controls. After 4 hours of incubation, 20 μL of the supernatant was transferred to a 384 well plate. AMP level in supernatant was measured indirectly by adding 5 μL of CellTiter-Glo® 2.0 reagent and 5 μL of ATP with a final concentration of 1 μM. Following incubation of plate at room temperature for 30 minutes, luminescent signal was read on a Tecan plate reader. The percentage inhibition at individual concentrations relative to high and low controls was calculated. The data were analyzed by using nonlinear regression to generate IC50 values.

| Compound | IC50 [1] | IC50 (human CD73) |
| --- | --- | --- |
| O=C(Nc1ccc(Cl)cc1)O[C@@H]1CCN(c2cn[nH]c(=O)c2Cl)C1 [P-0094, (R)-1-(5-chloro-6-oxo-1,6-dihydropyridazin-4-yl)pyrrolidin-3-yl (4-chlorophenyl)carbamate] | 0.001 to 10 µM | 10 to 100 µM |
| O=C(NCC1CCCC1)O[C@@H]1CCN(c2cn[nH]c(=O)c2Cl)C1 [P-0095, (R)-1-(5-chloro-6-oxo-1,6-dihydropyridazin-4-yl)pyrrolidin-3-yl (cyclopentylmethyl)carbamate] | 0.001 to 10 µM | 0.001 to 10 µM |
| O=C(NCC(F)(F)F)O[C@@H]1CCN(c2cn[nH]c(=O)c2Cl)C1 [P-0096, (R)-1-(5-chloro-6-oxo-1,6-dihydropyridazin-4-yl)pyrrolidin-3-yl (2,2,2-trifluoroethyl)carbamate] | 0.001 to 10 µM | 0.001 to 10 µM |
| O=C(NC1CCOCC1)O[C@@H]1CCN(c2cn[nH]c(=O)c2Cl)C1 [P-0097, (R)-1-(5-chloro-6-oxo-1,6-dihydropyridazin-4-yl)pyrrolidin-3-yl (tetrahydro-2H-pyran-4-yl)carbamate] | 0.001 to 10 µM | 0.001 to 10 µM |
| CN(C(=O)O[C@@H]1CCN(c2cn[nH]c(=O)c2Cl)C1)C1CCCCC1 [P-0099, (R)-1-(5-chloro-6-oxo-1,6-dihydropyridazin-4-yl)pyrrolidin-3-yl cyclohexyl(methyl)carbamate] | 0.001 to 10 µM | 10 to 100 µM |
| O=C(NCc1ccccc1)O[C@@H]1CCN(c2cn[nH]c(=O)c2Cl)C1 [P-0100, (R)-1-(5-chloro-6-oxo-1,6-dihydropyridazin-4-yl)pyrrolidin-3-yl benzylcarbamate] | 0.001 to 10 µM | 10 to 100 µM |
| O=C(Nc1cccc(Cl)c1)O[C@@H]1CCN(c2cn[nH]c(=O)c2Cl)C1 [P-0101, (R)-1-(5-chloro-6-oxo-1,6-dihydropyridazin-4-yl)pyrrolidin-3-yl (3-chlorophenyl)carbamate] | 0.001 to 10 µM | 0.001 to 10 µM |
| CCOC(=O)N1CCC(NC(=O)O[C@@H]2CCN(c3cn[nH]c(=O)c3Cl)C2)CC1 [P-0102, ethyl (R)-4-((((1-(5-chloro-6-oxo-1,6-dihydropyridazin-4-yl)pyrrolidin-3-yl)oxy)carbonyl)amino) piperidine-1-carboxylate] | 0.001 to 10 µM | 0.001 to 10 µM |
| O=C(N[C@@H]1CCN(c2cn[nH]c(=O)c2Cl)C1)N[C@@H]1CCN(c2cn[nH]c(=O)c2Cl)C1 [P-0103, 1,3-bis((R)-1-(5-chloro-6-oxo-1,6-dihydropyridazin-4-yl)pyrrolidin-3-yl)urea] | 0.001 to 10 µM | 10 to 100 µM |
| O=C(NC1CC(F)(F)C1)O[C@@H]1CCN(c2cn[nH]c(=O)c2Cl)C1 [P-0104, (R)-1-(5-chloro-6-oxo-1,6-dihydropyridazin-4-yl)pyrrolidin-3-yl (3,3-difluorocyclobutyl)carbamate] | 0.001 to 10 µM | 0.001 to 10 µM |
| O=C(NC1CCN(C(=O)CO)CC1)O[C@@H]1CCN(c2cn[nH]c(=O)c2Cl)C1 [P-0105, (R)-1-(5-chloro-6-oxo-1,6-dihydropyridazin-4-yl)pyrrolidin-3-yl (1-(2-hydroxyacetyl)piperidin-4-yl)carbamate] | 0.001 to 10 µM | 0.001 to 10 µM |
| O=C(NC1CCC(F)(F)CC1)O[C@@H]1CCN(c2cn[nH]c(=O)c2Cl)C1 [P-0106, (R)-1-(5-chloro-6-oxo-1,6-dihydropyridazin-4-yl)pyrrolidin-3-yl (4,4-difluorocyclohexyl)carbamate] | 0.001 to 10 µM | 0.001 to 10 µM |
| O=C(N[C@H]1CCOC1)O[C@@H]1CCN(c2cn[nH]c(=O)c2Cl)C1 [P-0107, (R)-1-(5-chloro-6-oxo-1,6-dihydropyridazin-4-yl)pyrrolidin-3-yl ((S)-tetrahydrofuran-3-yl)carbamate] | 0.001 to 10 µM | 0.001 to 10 µM |
| O=C(N[C@@H]1CCOC1)O[C@@H]1CCN(c2cn[nH]c(=O)c2Cl)C1 [P-0108, (R)-1-(5-chloro-6-oxo-1,6-dihydropyridazin-4-yl)pyrrolidin-3-yl ((R)-tetrahydrofuran-3-yl)carbamate] | 0.001 to 10 µM | 0.001 to 10 µM |
| C[C@H]1CC[C@H](NC(=O)O[C@@H]2CCN(c3cn[nH]c(=O)c3Cl)C2)CC1 [P-0109, (R)-1-(5-chloro-6-oxo-1,6-dihydropyridazin-4-yl)pyrrolidin-3-yl ((1r,4R)-4-methylcyclohexyl)carbamate] | 0.001 to 10 µM | 0.001 to 10 µM |
| C[C@H]1CC[C@@H](NC(=O)O[C@@H]2CCN(c3cn[nH]c(=O)c3Cl)C2)CC1 [P-0110, (R)-1-(5-chloro-6-oxo-1,6-dihydropyridazin-4-yl)pyrrolidin-3-yl ((1s,4S)-4-methylcyclohexyl)carbamate] | 0.001 to 10 µM | 0.001 to 10 µM |
| O=C(NC1C2CC3CC(C2)CC1C3)O[C@@H]1CCN(c2cn[nH]c(=O)c2Cl)C1 (stereo partly drawn) [P-0111, (R)-1-(5-chloro-6-oxo-1,6-dihydropyridazin-4-yl)pyrrolidin-3-yl adamantan-2-ylcarbamate] | 0.001 to 10 µM | 0.001 to 10 µM |
| O=C(NC1CCC(F)(F)C1)O[C@@H]1CCN(c2cn[nH]c(=O)c2Cl)C1 (stereo partly drawn) [P-0112, (R)-1-(5-chloro-6-oxo-1,6-dihydropyridazin-4-yl)pyrrolidin-3-yl (3,3-difluorocyclopentyl)carbamate] | 0.001 to 10 µM | 0.001 to 10 µM |
| CC1(NC(=O)O[C@@H]2CCN(c3cn[nH]c(=O)c3Cl)C2)CCOC1 (stereo partly drawn) [P-0113, (R)-1-(5-chloro-6-oxo-1,6-dihydropyridazin-4-yl)pyrrolidin-3-yl (3-methyltetrahydrofuran-3-yl)carbamate] | 0.001 to 10 µM | 0.001 to 10 µM |

More lines, now with the values ahead:

| IC50 [1] | IC50 (human CD73) | Compound |
| --- | --- | --- |
| 0.001 to 10 µM | 10 to 100 µM | O=C(NC1CCC1)N[C@@H]1CCN(c2cn[nH]c(=O)c2Cl)C1 [P-0085, (R)-1-(1-(5-chloro-6-oxo-1,6-dihydropyridazin-4-yl)pyrrolidin-3-yl)-3-cyclobutylurea] |
| 0.001 to 10 µM | 10 to 100 µM | O=C(NC1CCS(=O)(=O)CC1)N[C@@H]1CCN(c2cn[nH]c(=O)c2Cl)C1 [P-0086, (R)-1-(1-(5-chloro-6-oxo-1,6-dihydropyridazin-4-yl)pyrrolidin-3-yl)-3-(1,1-dioxidotetrahydro-2H-thiopyran-4-yl)urea] |
| 0.001 to 10 µM | 10 to 100 µM | O=C(CO)NC1CCC(NC(=O)N[C@@H]2CCN(c3cn[nH]c(=O)c3Cl)C2)CC1 (stereo partly drawn) [P-0088, (R)-N-(4-(3-(1-(5-chloro-6-oxo-1,6-dihydropyridazin-4-yl)pyrrolidin-3-yl)ureido)cyclohexyl)-2-hydroxyacetamide] |
| 0.001 to 10 µM | 0.001 to 10 µM | CC(C)(C)OC(=O)N1CCC(NC(=O)O[C@@H]2CCN(c3cn[nH]c(=O)c3Cl)C2)CC1 [P-0089, tert-butyl (R)-4-((((1-(5-chloro-6-oxo-1,6-dihydropyridazin-4-yl)pyrrolidin-3-yl)oxy)carbonyl)amino) piperidine-1-carboxylate] |
| 0.001 to 10 µM | 0.001 to 10 µM | CC(=O)N1CCC(NC(=O)O[C@@H]2CCN(c3cn[nH]c(=O)c3Cl)C2)CC1 [P-0090, (R)-1-(5-chloro-6-oxo-1,6-dihydropyridazin-4-yl)pyrrolidin-3-yl (1-acetylpiperidin-4-yl)carbamate] |
| 0.001 to 10 µM | 0.001 to 10 µM | CS(=O)(=O)NC1CCC(NC(=O)N[C@@H]2CCN(c3cn[nH]c(=O)c3Cl)C2)CC1 (stereo partly drawn) [P-0091, (R)-N-(4-(3-(1-(5-chloro-6-oxo-1,6-dihydropyridazin-4-yl)pyrrolidin-3-yl)ureido)cyclohexyl) methanesulfonamide] |
| 0.001 to 10 µM | 0.001 to 10 µM | O=C(NC1CC1)O[C@@H]1CCN(c2cn[nH]c(=O)c2Cl)C1 [P-0092, (R)-1-(5-chloro-6-oxo-1,6-dihydropyridazin-4-yl)pyrrolidin-3-yl cyclopropylcarbamate] |
| 0.001 to 10 µM | 0.001 to 10 µM | O=C(Nc1ccccc1)O[C@@H]1CCN(c2cn[nH]c(=O)c2Cl)C1 [P-0093, (R)-1-(5-chloro-6-oxo-1,6-dihydropyridazin-4-yl)pyrrolidin-3-yl phenylcarbamate] |
